What was measured:
eIF-2-alpha kinase GCN2 [1] = target: T1, eIF-2-alpha kinase GCN2 (Homo sapiens, UniProt Q9P2K8); assay: GCN2 Enzyme Inhibition (ATP 10 uM)
Protocol: (§1) The inhibitory activity of the Example compounds towards GCN2 enzyme was measured according to the description below, using a LanthaScreen TR-FRET (Time Resolved Fluorescence Resonance Energy Transfer) Kinase Activity assay distributed by ThermoFisher Scientific. The full-length human GCN2 enzyme (UniProt accession number Q9P2K8) was used for all experiments (Carna Bioscience). The TR-FRET pair was composed of GFP-eIF2α and LanthaScreen Terbium-labeled anti-peIF2α (pSer52) Antibody. […] Full inhibition (3000 nM commercial reference inhibitor) and DMSO vehicle control wells were also included on the same plate. All volumes were normalized to the final DMSO concentration of 2% of the reaction volume. Next, 5 μL of H2O was added to each well of the plate.

eIF-2-alpha kinase GCN2 [2] = target: T1, eIF-2-alpha kinase GCN2; assay: GCN2 Enzyme Inhibition (ATP 300 uM)
Protocol: as §1

T1 sequence (Q9P2K8 whole entry): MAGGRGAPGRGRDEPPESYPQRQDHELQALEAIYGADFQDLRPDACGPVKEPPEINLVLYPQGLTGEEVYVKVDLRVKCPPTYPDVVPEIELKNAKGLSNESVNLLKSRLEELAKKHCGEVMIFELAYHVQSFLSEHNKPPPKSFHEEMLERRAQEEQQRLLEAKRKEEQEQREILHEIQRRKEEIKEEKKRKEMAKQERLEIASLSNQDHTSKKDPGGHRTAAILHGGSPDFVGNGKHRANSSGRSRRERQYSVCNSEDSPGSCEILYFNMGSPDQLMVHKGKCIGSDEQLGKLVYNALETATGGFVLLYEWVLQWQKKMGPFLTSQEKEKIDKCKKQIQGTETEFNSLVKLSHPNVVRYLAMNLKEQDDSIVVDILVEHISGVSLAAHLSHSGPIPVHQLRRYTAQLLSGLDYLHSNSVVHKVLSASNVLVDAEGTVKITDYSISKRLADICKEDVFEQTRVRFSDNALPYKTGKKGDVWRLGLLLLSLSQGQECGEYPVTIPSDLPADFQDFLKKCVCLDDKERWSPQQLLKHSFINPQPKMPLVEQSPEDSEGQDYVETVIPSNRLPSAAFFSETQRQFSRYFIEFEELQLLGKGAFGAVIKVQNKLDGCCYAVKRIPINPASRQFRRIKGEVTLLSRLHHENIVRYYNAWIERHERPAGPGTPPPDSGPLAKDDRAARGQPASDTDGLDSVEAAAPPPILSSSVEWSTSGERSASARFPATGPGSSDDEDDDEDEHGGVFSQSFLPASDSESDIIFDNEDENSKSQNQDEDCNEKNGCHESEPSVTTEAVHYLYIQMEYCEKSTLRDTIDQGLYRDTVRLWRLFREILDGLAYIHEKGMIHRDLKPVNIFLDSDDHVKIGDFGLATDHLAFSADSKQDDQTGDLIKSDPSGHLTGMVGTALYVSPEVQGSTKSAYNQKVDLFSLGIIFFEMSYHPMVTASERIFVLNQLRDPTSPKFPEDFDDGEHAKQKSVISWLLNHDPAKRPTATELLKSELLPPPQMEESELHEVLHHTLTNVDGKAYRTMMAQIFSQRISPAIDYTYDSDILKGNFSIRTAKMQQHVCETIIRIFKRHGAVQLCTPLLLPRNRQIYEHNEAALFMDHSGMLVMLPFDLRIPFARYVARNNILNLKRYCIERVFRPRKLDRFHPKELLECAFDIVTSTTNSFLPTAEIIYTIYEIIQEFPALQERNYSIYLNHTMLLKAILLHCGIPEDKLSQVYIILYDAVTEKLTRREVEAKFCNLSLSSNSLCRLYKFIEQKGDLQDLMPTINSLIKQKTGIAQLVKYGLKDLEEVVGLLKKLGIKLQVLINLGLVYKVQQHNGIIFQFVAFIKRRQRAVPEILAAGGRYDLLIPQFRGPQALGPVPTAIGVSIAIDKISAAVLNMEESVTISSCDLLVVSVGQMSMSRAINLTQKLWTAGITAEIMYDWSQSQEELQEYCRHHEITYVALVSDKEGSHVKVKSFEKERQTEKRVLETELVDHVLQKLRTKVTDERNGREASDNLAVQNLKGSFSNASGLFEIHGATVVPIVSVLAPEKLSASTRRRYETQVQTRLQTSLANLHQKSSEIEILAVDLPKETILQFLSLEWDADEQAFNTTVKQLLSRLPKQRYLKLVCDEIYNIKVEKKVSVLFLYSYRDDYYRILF

Q: With `COc1ncc(Cl)cc1S(=O)(=O)Nc1ncc(F)c(C#Cc2cnc(N)nc2)c1F` [US20230271939, Example 10] as the compound, how does the IC50 (eIF-2-alpha kinase GCN2 [1]) read?
A: 19.1 nM

Q: What about the Ki (eIF-2-alpha kinase GCN2 [1]) of the same compound?
A: 6.1 nM

Q: And the IC50 (eIF-2-alpha kinase GCN2 [2])?
A: 57.3 nM

Q: What about the Ki (eIF-2-alpha kinase GCN2 [2]) of the same compound?
A: 0.9 nM
